Common to all, as to format: biochemical
Test [1] is described as follows: DPPH free radical scavenging activity (preferred embodiment). The note with it: standard compounds 100 mg/ml (0.1 g/ml) in ethyl alcohol; OD 517 nm, 30 min. The protocol:
Free radical scavenging activity was then evaluated. Standard solutions (0.1 g/ml in ethyl alcohol) of BHA, BHT and vitamin E were freshly prepared. DPPH scavenging activity was determined as described below. The following observations and results were then recorded: [table] Optical density OD was measured at 517 nm at 0 min and 30 min after mixing. Percent free radical scavenging activity was calculated as follows: Percent activity=100×{Ac1−(At2−Ab1)}/Ac2, Where Ac1=OD of control at 0 min At2=OD of test at 30 min Ab1=OD of blank at 0 min Ac2=OD of control at 30 min
A general note: DPPH is a stable violet radical that fades when it is reduced.

Test [2] can be described thus: DPPH free radical scavenging activity (Example 9). As to conditions: standard compounds 100 mg/ml in ethyl alcohol. The protocol:
The said Sample was washed with ethyl acetate to get organic acids crystallized out. The crystals mainly consisted of succinic acid, which was identified by RI and H-NMR. The remaining magma, called bio-polyphenols (BPP) was tested for its anti-oxidant activity. The BPP was dissolved in ethyl alcohol to get concentrations of 100 mg/ml to 400 mg/ml. Standard compounds of BHA, BHT and vitamin E, which are recognized as strong anti-oxidants, and ZR drink described in Example 4 were also employed for comparison. Concentration of standard compounds in ethyl alcohol was 100 mg/ml each. The assay method to determine the scavenging activity of free radical DPPH was as described below.
Optical density OD was measured at 517 nm at 0 mm and 30 mm after mixing. Percent free radical scavenging activity was calculated as follows.
Percent activity=(Ac 1−(At2−Ab 1)}/Ac2×100,
Where Ac1=of control at 0 mm
Ac2=OD of control at 30 mm

A short description of test [3]: Peroxide value (POV) activity, modified Rodan's method. As to conditions: 0.1 g/ml in ethyl alcohol, 0.05 ml; 50° C., 3 days, dark; OD 500 nm. On the procedure:
Peroxide value (POV) activity was determined by a slightly modified Rodan's method (Terasawa, N., Yamazaki, N., and Fukui Y: Antioxidant activity of water extracts of herbs, Nippon Shokuhin Kagaku Kogaku Kaishi, 48, 2, 99-104, 2001.)
After mixing in a screw-capped test tube, the reaction mass was incubated inside a dark incubator at 50° C. for 3 days. The assay of liberated peroxide compounds was carried out as follows.
After 3 minutes, optical density was measured at 500 nm. Percent POV activity was calculated as follows:
Percent activity=100×(OD of sample or standard/OD of control)

As to `COc1ccc(O)c(C(C)(C)C)c1` [BHA], the “Percent activity (free radical scavenging)” value in test [1] and in test [2] was 83.0% each time. For the same compound, the “Percent activity (POV) = 100 x OD of sample or standard / OD of control” value in test [3] is 8.9%.

As for vitamin E, the “Percent activity (free radical scavenging)” value in test [1] and in test [2] was 83.0% each time. Besides, the “Percent activity (POV) = 100 x OD of sample or standard / OD of control” value in test [3] is 0%.

As to `Cc1cc(C(C)(C)C)c(O)c(C(C)(C)C)c1` [BHT], the “Percent activity (free radical scavenging)” value in test [1] and in test [2] was 83.4% throughout. For the same compound, the “Percent activity (POV) = 100 x OD of sample or standard / OD of control” value in test [3] is 13.5%.

For the origin of these results see patent US20030219456A1, “Method of utilization of zygosaccharomyces rouxii” (priority 2002, published 2003).
